Where “and” joins values, the source holds several entries; their conditions need not be identical. Identical values can stand only once.
How the values were obtained:
Experiment in all cases: biochemical
Parameters in all cases: endogenous in cells; host or cells: K562 cell extract; species or system K562 (extract); replicate k of n = 2 (each experiment ID is one independent experiment; two experiment IDs per compound)
Conditions in all cases: read-out: KDapp
MAP3K3 = target: T1, MAP3K3 (Homo sapiens, UniProt Q99759)
T1 sequence (Q99759 1-626): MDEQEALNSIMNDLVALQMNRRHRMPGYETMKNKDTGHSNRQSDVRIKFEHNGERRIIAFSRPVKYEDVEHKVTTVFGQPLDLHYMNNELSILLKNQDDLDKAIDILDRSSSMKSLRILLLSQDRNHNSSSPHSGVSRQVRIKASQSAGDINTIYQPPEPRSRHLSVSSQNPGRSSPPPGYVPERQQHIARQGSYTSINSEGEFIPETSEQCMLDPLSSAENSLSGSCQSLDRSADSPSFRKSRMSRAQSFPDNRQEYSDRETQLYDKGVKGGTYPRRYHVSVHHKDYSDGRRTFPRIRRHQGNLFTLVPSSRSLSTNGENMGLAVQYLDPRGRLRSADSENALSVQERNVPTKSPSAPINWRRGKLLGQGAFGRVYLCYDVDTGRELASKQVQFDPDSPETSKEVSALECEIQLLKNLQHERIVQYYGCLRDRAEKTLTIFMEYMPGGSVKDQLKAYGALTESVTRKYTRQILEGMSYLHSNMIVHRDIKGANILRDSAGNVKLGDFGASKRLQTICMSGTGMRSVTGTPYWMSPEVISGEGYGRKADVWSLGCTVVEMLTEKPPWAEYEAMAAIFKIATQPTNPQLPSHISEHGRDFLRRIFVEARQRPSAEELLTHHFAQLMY

SLK = SLK (Homo sapiens, UniProt Q9H2G2)
CDK9 = CDK9 (Homo sapiens, UniProt P50750)
NEK2 = target: T2, NEK2 (Homo sapiens, UniProt P51955)
T2 sequence (P51955 1-445): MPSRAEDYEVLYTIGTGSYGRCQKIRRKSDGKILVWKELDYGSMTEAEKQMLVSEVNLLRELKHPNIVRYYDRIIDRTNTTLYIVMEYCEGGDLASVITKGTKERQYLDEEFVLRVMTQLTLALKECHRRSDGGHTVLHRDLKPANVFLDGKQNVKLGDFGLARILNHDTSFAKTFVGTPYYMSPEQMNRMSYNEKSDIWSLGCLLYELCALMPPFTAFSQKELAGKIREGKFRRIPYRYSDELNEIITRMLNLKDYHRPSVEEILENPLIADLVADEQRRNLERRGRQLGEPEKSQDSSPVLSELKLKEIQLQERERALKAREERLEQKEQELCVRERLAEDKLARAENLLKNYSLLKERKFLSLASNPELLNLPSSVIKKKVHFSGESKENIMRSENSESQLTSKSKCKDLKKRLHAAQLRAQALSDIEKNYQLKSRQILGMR

AURKB = AURKB (Homo sapiens, UniProt Q96GD4)
DYRK1A = DYRK1A (Homo sapiens, UniProt Q13627)
TYK2 = TYK2 (Homo sapiens, UniProt P29597)
CDK7 = CDK7 (Homo sapiens, UniProt P50613)
YES1 = YES1 (Homo sapiens, UniProt P07947)
PRKCB = PRKCB (Homo sapiens, UniProt P05771)
MAPK9 = MAPK9 (Homo sapiens, UniProt P45984)
PRKCQ = PRKCQ (Homo sapiens, UniProt Q04759)
Chain of PRKCQ (Q04759 whole entry): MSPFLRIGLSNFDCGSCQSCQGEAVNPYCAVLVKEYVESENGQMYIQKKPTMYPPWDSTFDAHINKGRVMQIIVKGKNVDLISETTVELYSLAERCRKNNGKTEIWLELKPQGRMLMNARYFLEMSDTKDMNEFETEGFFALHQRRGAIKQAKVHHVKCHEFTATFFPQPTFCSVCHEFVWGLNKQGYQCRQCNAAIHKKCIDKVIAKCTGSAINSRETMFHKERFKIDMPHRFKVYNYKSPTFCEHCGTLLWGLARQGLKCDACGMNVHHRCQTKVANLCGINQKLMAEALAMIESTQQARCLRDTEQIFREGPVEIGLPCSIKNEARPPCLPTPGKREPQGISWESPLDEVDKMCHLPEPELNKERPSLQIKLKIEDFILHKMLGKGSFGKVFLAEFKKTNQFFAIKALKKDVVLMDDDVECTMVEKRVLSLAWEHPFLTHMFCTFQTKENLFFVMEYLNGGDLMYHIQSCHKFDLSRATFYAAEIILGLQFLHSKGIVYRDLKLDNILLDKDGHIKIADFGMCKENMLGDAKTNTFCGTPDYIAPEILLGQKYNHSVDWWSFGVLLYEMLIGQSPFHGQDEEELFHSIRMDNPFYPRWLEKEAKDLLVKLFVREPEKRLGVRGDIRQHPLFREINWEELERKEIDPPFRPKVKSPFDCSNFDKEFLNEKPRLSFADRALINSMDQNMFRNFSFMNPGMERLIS

Chain of SLK (Q9H2G2 whole entry): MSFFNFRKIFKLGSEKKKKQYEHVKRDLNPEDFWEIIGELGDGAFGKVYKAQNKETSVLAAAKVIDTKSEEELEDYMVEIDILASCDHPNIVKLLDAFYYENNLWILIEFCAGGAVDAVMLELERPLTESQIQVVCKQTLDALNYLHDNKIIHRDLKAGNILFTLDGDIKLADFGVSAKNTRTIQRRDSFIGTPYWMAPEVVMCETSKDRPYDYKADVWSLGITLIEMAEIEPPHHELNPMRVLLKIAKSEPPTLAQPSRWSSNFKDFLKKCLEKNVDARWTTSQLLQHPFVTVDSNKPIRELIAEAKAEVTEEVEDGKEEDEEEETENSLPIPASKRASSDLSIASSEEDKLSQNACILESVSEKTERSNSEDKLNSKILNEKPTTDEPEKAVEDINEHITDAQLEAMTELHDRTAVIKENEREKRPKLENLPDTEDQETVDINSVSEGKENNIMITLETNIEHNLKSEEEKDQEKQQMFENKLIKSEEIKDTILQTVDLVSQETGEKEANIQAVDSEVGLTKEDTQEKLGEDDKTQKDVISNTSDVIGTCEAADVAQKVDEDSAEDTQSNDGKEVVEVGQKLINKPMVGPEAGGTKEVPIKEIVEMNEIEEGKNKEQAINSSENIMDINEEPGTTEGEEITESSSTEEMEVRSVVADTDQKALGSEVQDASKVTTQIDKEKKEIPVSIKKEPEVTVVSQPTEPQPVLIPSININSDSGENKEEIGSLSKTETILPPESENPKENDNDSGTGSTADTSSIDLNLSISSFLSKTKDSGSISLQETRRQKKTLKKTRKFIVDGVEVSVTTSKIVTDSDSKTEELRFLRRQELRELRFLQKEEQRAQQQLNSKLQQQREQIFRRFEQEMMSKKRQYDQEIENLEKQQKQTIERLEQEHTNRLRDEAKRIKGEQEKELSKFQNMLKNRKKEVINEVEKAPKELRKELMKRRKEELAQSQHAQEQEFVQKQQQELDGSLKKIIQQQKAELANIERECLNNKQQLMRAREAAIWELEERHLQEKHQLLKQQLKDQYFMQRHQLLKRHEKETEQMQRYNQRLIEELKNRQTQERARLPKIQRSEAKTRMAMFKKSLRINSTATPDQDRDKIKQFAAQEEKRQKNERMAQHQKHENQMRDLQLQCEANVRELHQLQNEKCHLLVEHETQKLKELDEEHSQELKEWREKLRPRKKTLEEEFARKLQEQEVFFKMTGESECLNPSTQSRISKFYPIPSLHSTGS
Chain of CDK9 (P50750 whole entry): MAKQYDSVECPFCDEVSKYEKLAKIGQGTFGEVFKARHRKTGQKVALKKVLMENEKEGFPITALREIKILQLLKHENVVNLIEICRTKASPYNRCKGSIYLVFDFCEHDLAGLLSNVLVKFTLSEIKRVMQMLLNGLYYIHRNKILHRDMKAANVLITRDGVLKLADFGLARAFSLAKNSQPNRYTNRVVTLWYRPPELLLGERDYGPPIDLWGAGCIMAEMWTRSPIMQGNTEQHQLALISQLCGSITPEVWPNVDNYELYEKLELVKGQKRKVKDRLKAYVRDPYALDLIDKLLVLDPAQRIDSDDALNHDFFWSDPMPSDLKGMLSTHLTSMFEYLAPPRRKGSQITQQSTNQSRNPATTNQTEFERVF
Chain of MAPK9 (P45984 whole entry): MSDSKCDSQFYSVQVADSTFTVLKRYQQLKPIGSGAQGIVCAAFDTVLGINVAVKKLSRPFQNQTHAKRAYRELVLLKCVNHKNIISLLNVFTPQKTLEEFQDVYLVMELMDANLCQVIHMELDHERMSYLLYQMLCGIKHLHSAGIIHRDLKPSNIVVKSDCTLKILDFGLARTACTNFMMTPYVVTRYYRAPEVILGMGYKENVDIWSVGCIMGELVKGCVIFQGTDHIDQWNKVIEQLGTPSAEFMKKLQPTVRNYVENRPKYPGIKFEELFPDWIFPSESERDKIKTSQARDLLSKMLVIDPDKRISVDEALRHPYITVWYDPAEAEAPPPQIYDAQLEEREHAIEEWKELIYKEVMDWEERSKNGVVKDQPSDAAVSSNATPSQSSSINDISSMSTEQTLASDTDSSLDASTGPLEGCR
Chain of CDK7 (P50613 whole entry): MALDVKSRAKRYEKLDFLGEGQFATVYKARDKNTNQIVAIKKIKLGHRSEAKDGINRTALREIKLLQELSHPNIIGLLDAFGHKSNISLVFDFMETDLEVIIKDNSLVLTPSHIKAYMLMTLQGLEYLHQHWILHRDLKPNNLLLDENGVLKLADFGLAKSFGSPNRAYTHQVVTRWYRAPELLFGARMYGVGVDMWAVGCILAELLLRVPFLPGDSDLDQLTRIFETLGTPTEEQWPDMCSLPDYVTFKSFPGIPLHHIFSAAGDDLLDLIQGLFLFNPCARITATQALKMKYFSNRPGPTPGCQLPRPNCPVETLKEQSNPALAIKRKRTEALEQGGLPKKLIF
Chain of AURKB (Q96GD4 whole entry): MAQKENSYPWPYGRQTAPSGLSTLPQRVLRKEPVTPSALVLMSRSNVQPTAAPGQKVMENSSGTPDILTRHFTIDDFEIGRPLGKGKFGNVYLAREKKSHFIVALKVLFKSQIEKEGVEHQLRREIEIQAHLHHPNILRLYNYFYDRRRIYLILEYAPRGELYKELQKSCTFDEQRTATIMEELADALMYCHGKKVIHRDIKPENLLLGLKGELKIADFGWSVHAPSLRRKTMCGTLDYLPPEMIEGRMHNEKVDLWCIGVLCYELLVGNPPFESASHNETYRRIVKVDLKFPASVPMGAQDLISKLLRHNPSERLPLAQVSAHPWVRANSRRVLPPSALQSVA
Chain of TYK2 (P29597 whole entry): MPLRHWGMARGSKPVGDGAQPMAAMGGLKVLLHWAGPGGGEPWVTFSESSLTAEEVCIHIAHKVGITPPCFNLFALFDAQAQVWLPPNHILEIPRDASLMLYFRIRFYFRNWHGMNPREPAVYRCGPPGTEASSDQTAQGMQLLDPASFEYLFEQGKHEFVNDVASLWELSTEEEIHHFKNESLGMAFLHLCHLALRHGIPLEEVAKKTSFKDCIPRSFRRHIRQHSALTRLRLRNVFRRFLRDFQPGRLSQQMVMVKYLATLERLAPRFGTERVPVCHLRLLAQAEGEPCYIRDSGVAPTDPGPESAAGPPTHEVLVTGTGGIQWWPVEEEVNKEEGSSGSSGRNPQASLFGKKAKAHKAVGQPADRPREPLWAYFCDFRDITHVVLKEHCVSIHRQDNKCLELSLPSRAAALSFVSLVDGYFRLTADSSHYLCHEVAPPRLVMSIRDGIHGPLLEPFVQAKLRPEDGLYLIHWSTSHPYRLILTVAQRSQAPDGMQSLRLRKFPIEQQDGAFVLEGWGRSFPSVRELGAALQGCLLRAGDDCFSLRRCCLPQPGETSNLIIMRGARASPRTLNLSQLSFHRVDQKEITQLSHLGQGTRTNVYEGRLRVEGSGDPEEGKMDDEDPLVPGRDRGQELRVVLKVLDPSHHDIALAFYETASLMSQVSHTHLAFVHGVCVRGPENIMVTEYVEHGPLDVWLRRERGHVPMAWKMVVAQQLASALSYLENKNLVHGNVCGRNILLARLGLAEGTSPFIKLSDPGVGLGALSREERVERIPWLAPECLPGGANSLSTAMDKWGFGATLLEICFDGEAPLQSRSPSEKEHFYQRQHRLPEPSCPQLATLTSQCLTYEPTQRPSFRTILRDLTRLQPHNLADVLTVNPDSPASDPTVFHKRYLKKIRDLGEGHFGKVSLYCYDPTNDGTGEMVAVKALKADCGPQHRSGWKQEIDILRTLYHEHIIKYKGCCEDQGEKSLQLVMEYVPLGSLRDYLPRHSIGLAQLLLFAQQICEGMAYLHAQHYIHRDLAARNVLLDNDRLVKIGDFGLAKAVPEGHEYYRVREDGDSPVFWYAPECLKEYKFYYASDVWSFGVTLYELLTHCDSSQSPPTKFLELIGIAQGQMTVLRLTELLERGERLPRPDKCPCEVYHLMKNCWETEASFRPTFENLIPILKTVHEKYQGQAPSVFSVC

In the case of `CN(C)CC(O)COc1ccc(Nc2ncc([N+](=O)[O-])c(Nc3ccccc3O)n2)cc1.O=C(O)C(F)(F)F` (stereo not drawn) [TCMDC-141399], the Kd (MAP3K3) is reported as 3400 nM, the Kd (SLK) is reported as 528 nM and 593 nM and the Kd (CDK9) is reported as 2780 nM and 3820 nM. For the same molecule, the Kd (NEK2) was 3060 nM and 1980 nM, the Kd (AURKB) was 1500 nM and the Kd (DYRK1A) was 2860 nM. The Kd (TYK2) was 677 nM and the Kd (CDK7) was 1430 nM and 4620 nM.
`Cl.NCC1(c2nc(-c3ccc(Cl)c(O)c3)c(-c3ccncc3)[nH]2)CCCCC1` [TCMDC-141154] was tested, and the Kd (YES1) was 1490 nM and 2600 nM, the Kd (PRKCB) was 5660 nM and 2780 nM and the Kd (MAPK9) was 355 nM. For the same molecule, the Kd (PRKCQ) was 786 nM and 1000 nM.
For `CN1CCN(c2ccc(Nc3ncc(C#N)c(Nc4ccccc4C(N)=O)n3)cc2)CC1.Cl` [TCMDC-134116], the Kd (MAP3K3) was 176 nM, the Kd (YES1) was 40.6 nM and 50.7 nM and the Kd (SLK) was 28.5 nM and 33.8 nM. The Kd (CDK9) was 576 nM and 393 nM, the Kd (PRKCB) was 410 nM and the Kd (NEK2) was 269 nM and 118 nM. For the same molecule, the Kd (AURKB) was 14.3 nM and 22.8 nM, the Kd (DYRK1A) was 286 nM and 263 nM and the Kd (TYK2) was 35.6 nM and 32.8 nM. The Kd (MAPK9) was 230 nM and 209 nM, the Kd (CDK7) was 422 nM and 494 nM and the Kd (PRKCQ) was 858 nM and 650 nM.
